The structures appear in SMILES notation. Values joined by “and” are separate entries in the source; they are usually repeats but may differ in a detail not shown here. Equal values may be shown once.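 Growth conditions: 96-well plates. Treatment: test compound, 48 hours, 5 concentrations. Analysis: linear interpolation between bracketing concentrations; unreached endpoints set to highest concentration. The concentration for 50% growth inhibition is given as GI50. TGI: total growth inhibition.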

Some test systems named below: DLD-1 colon; SNB-78 CNS; XF 498 CNS; KM20L2 colon; LXFL 529 NSCLC; HOP-18 NSCLC; M19-MEL melanoma; NCI/ADR-RES ovarian; MCF7 breast; HS 578T breast.
Assay in all cases: NCI-60 cell line screen, 48 h

With `COc1ccc2c(c1)CC1c3c(cc4c(c3-2)OCO4)CCN1C` (stereo not drawn), the TGI in the assay on DLD-1 colon was above 100 µM; in the assay with SNB-78 CNS, above 100 µM; in the assay with XF 498 CNS it was 74 µM; with KM20L2 colon, above 100 µM; in the assay on LXFL 529 NSCLC it was above 100 µM; in the assay with HOP-18 NSCLC it was 82.7 µM. The TGI in the assay with M19-MEL melanoma stood at 45.2 µM.
Consider `COc1cc(/C=C2/C(=O)NC(Cc3cc(OC)c(OC)c(C)c3OC)C(=O)N2Cc2ccccc2)c(OC)c(C)c1OC` (stereo not drawn), for which the TGI was above 100 µM in the assay on DLD-1 colon; above 100 µM in the assay with KM20L2 colon; above 100 µM in the assay on LXFL 529 NSCLC; 80.4 µM in the assay with HOP-18 NSCLC; above 100 µM with M19-MEL melanoma.
With `C/C(=C\CC[C@]1(C)OC(C)(C)OC1CC/C(C)=C/CO[Si](c1ccccc1)(c1ccccc1)C(C)(C)C)CC/C=C/CO[Si](C)(C)C(C)(C)C` (stereo partly drawn), the TGI with DLD-1 colon, in the assay with SNB-78 CNS, in the assay with KM20L2 colon and in the assay on M19-MEL melanoma was above 100 µM throughout.
As for `Cc1ccc(C2=C(c3ccccc3)C(Br)(c3ccccc3)C(c3ccccc3)=C2c2ccc(C)cc2)cc1`, the TGI with DLD-1 colon, with SNB-78 CNS, in the assay on XF 498 CNS, in the assay on KM20L2 colon, with LXFL 529 NSCLC and in the assay with HOP-18 NSCLC was above 100 µM each time. Further, the TGI with M19-MEL melanoma was above 100 µM.
`O=C1CCCC1NC(=O)C(F)(F)F` (stereo not drawn): the TGI in the assay on DLD-1 colon, in the assay on SNB-78 CNS, in the assay with XF 498 CNS, with LXFL 529 NSCLC and with M19-MEL melanoma was above 100 µM each time.
On to `COc1ccccc1/C=N/N=C(\N)NO`, for which the TGI in the assay with DLD-1 colon, in the assay on SNB-78 CNS, in the assay on LXFL 529 NSCLC, with HOP-18 NSCLC and in the assay with M19-MEL melanoma was above 100 µM throughout.
As to `Cc1cccc2c1C/C(=C1\CCc3c(C)cccc31)C2=O`, the TGI in the assay on DLD-1 colon, in the assay with KM20L2 colon, in the assay on LXFL 529 NSCLC, in the assay on HOP-18 NSCLC and in the assay with M19-MEL melanoma was above 100 µM each time.
As to `Cn1c(=O)c(C(=O)NC(=O)OCc2ccccc2)cn(CCSCCOC(=O)NCCCCCCNC(=O)OCCSCCn2cc(C(=O)NC(=O)OCc3ccccc3)c(=O)n(C)c2=O)c1=O`, the TGI was above 100 µM in the assay on DLD-1 colon; above 100 µM in the assay on SNB-78 CNS; 57.6 µM in the assay on XF 498 CNS; above 100 µM in the assay with KM20L2 colon; above 100 µM in the assay with LXFL 529 NSCLC; above 100 µM in the assay on M19-MEL melanoma.
On to `O=C(N/C(=C\c1ccc(Oc2ccc(Cl)c(Cl)c2)cc1)c1nc2ccccc2[nH]1)c1ccccc1`, for which the TGI in the assay with DLD-1 colon is 42.9 µM; in the assay on SNB-78 CNS, 54.8 µM; with XF 498 CNS, 34.6 µM; in the assay on KM20L2 colon, 37.2 µM; in the assay with LXFL 529 NSCLC it was 32.3 µM; in the assay on M19-MEL melanoma, 94 µM.
With `CC1=Nn2c(nnc2-c2ccc(N)cc2)NC(C)(C)C1`, the TGI in the assay with DLD-1 colon, in the assay with SNB-78 CNS, with XF 498 CNS, in the assay with KM20L2 colon, with LXFL 529 NSCLC and in the assay with HOP-18 NSCLC was above 100 µM throughout. Further, the TGI in the assay on M19-MEL melanoma was above 100 µM.
For the molecule `CC1(C)C2C/C(=C\c3ccccc3)C(=O)C1C2` (stereo not drawn), the TGI in the assay on DLD-1 colon, in the assay with SNB-78 CNS, in the assay on LXFL 529 NSCLC and in the assay with M19-MEL melanoma was above 100 µM in each case.
Regarding `CC12CC3CC(C1)CC(N=[N+]=[N-])(C3)C2`, the TGI in the assay on DLD-1 colon, with SNB-78 CNS, in the assay on XF 498 CNS, in the assay with KM20L2 colon, in the assay with LXFL 529 NSCLC and with HOP-18 NSCLC was above 100 µM throughout. Besides, the TGI in the assay with M19-MEL melanoma is above 100 µM.
Take `Cc1ccc(/C=C2\CCCC\C2=N\O)cc1`: the TGI in the assay on DLD-1 colon, in the assay on SNB-78 CNS, in the assay with XF 498 CNS, with KM20L2 colon, with LXFL 529 NSCLC and with HOP-18 NSCLC was above 100 µM each time. Further, the TGI in the assay with M19-MEL melanoma is above 100 µM.
In the case of `[C-]#[N+]C(C)(C)C[C@H]1CC(C)C2CCC(C)C3([N+]#[C-])CCC(=C)C1[C@H]23` (stereo partly drawn), the TGI was 9.29 µM in the assay on DLD-1 colon; 12 µM in the assay on SNB-78 CNS; 10.1 µM in the assay with XF 498 CNS; 11.6 µM with KM20L2 colon; 23.4 µM with LXFL 529 NSCLC; 14.4 µM in the assay on HOP-18 NSCLC. The same molecule returned a TGI in the assay on M19-MEL melanoma of 9.43 µM.
On to `Clc1ccc(SCCCCCCCCCCSc2ccc(Cl)cc2)cc1`, for which the TGI with DLD-1 colon is above 100 µM; with SNB-78 CNS, above 100 µM; in the assay on XF 498 CNS it was above 100 µM; in the assay on KM20L2 colon, above 87 µM; in the assay on LXFL 529 NSCLC, above 100 µM; in the assay with HOP-18 NSCLC it was above 100 µM. Also, the TGI in the assay on M19-MEL melanoma is above 100 µM.
As for `C=C(C)[C@H](O)C(O)CC(C)[C@@H]1CCC23CC12CCC1[C@@]2(C)CCC(OC(C)=O)C(C)(C)C2CC(OC2OC(COC(C)=O)C(O)C(O)C2O)[C@]13C` (stereo partly drawn), the TGI in the assay with DLD-1 colon is 11.2 µM; with SNB-78 CNS it was 14.2 µM; in the assay with KM20L2 colon it was 9.84 µM; with LXFL 529 NSCLC it was 10.9 µM; in the assay on HOP-18 NSCLC, 15.2 µM; in the assay on M19-MEL melanoma, 10.7 µM.
Consider `CNc1nc(N(C)C)nc(N(C)C)n1`, for which the TGI in the assay on NCI/ADR-RES ovarian is 2650 µM; with MCF7 breast it was 1790 µM; with DLD-1 colon, > 100 µM and 4160 µM; with HS 578T breast, 4450 µM; with SNB-78 CNS it was > 100 µM and 5300 µM; with XF 498 CNS it was > 100 µM and 1720 µM. For the same molecule, the TGI was > 100 µM and 3210 µM in the assay on KM20L2 colon; above 100 µM with LXFL 529 NSCLC; > 100 µM and 3780 µM in the assay on HOP-18 NSCLC; > 100 µM and 3950 µM in the assay with M19-MEL melanoma. Also, the GI50 with DLD-1 colon was > 100 µM and 822 µM; with SNB-78 CNS, > 100 µM and 1780 µM; in the assay with XF 498 CNS it was > 100 µM and 538 µM; in the assay with KM20L2 colon, > 100 µM and 718 µM; with HOP-18 NSCLC, > 100 µM and 1130 µM; in the assay on M19-MEL melanoma, > 100 µM and 2040 µM.
Turning to `CS/C(c1ccccc1)=[N+](/C)[O-]`, the TGI in the assay on DLD-1 colon, with SNB-78 CNS, with XF 498 CNS, in the assay on KM20L2 colon, in the assay with LXFL 529 NSCLC and in the assay on HOP-18 NSCLC was above 100 µM throughout. Further, the TGI in the assay on M19-MEL melanoma is above 100 µM.
